Test results from US20210177824A1, “EXTENDED RELEASE FORMULATIONS FOR INTRA-ARTICULAR APPLICATIONS” (NOVARTIS AG, priority 2017, published 2021).

How the values were obtained:
Assay type in all cases: physicochemical
pKa of Compound A = settings: weakly basic
Description: (§1) Compound A can be formulated as immediate release formulations for intra-articular injection. However, due to a high fluid exchange between the synovial fluid and the blood stream, immediate release formulations have a short synovial residence half-life and require frequent injections.

[1] = Aqueous solubility of Compound A as a function of pH
Description: as §1

[2] = Particle size and surface area of micronized Compound A micro-crystals
Description: Compound A can be micronized using any methods known to those skilled in the art. Un-milled Compound A is subjected to a size reduction process to obtain particle size. The size reduction of Compound A can be performed using any known methods such as by jet-milling technology, and more particularly, by spiral jet-milling technology, fluidized bed opposed jet-milling technology or loop jet-milling technology.
In yet other embodiments, Compound A was micronized to form micro-crystals with maximal particle diameters characterized in Table 1.

pKa (pKa of Compound A): 5.2
pH dependence of solubility [1]: Solubility increases with decreasing pH
Solubility in neutral pH and basic pH aqueous solutions ([1]; neutral and basic pH): poorly soluble
Particle size: D10 [2]: ≤1.4 μm
Particle size: D50 [2]: ≤6.1 μm
Particle size: D90 [2]: ≤29.7 μm
Surface area [2]: 3 m^2/g
SMILES: O=C(Nc1ccc(Cl)c(Cl)c1)[C@@H]1[C@@H](c2ccncc2)[C@@H]2CC[C@H]1O2 [Compound A, N-(3,4-dichlorophenyl)-3-(pyridin-4-yl)-7-oxabicyclo[2.2.1] heptane-2-carboxamide]
